# Non-standard residues stand in square brackets, D forms with d. Residues, ends and D or L forms follow the SMILES beside them. No end group written: not given here. 2Nal = N[C@@H](Cc1ccc2ccccc2c1)C(=O)O; 2Thi = N[C@@H](Cc1cccs1)C(=O)O; β3hL = CC(C)C[C@H](N)CC(=O)O; Nle = CCCC[C@H](N)C(=O)O; βAla = NCCC(=O)O
# What was measured:
# renal PTH receptors = settings: background, literature report; cited from earlier work
# [1] = test system: PTH-stimulated adenylate cyclase; settings: background, literature report; cited from earlier work
# [2] = test system: adenylate cyclase in SaOS-2/B10 cells; test: Stimulation of adenylate cyclase activity in SaOS-2/B10 cells; assay type: cell-based; settings: 1 mM IBMX, 5 min incubation, read-out: EC50 (half maximal stimulation of adenylate cyclase)
# Procedure: The adenylate cyclase activity induced by each of the tested polypeptides of the invention was also measured in SaOS-2/B 10 cells as described previously (Rodain et al., J. Clin. Invest. (1983) 72,1511; Goldman, et al., Endocrinology (1988) 123, 1468). Conflúnt SaOS-2/B10 cells in 24 wells plates were incubated with 0.5 μCi [^3H]adenine (26.9 Ci/mmol, New England Nuclear, Boston, Mass. in fresh medium at 37° C. for 2 hrs. and washed twice with Hank's solution. The cells were treated with 1 mM IBMX (isobutylmethylxanthine, Sigma, St. Louis, Mo.) in fresh medium for 15 min. and a tested PTH analog was added to the medium to incubate for 5 min. The reaction was stopped by the addition of 1.2M TCA followed by sample neutralization with 4N KOH. Cyclic AMP was isolated by the two-column chromatographic method (Salomon, et al., Anal. Biochem. (1974) 58, 541). The radioactivity was counted in a scintillation counter (Liquid scintillation counter 2200CA, PACKARD, Downers Grove, Ill.).
# SaOS-2/B10 cells = assay type: binding; settings: 2 h
# Procedure: SaOS-2/B10 cells were maintained in RPMI1640 medium supplemented with 10% fetal bovine serum (FBS) and 2 mM glutamine at 37° C. in a humidified atmosphere of 5% CO2 in air. The medium was changed every three to four days, and the cells were subcultured every week by trypsinization.
# SaOS-2/B10 cells were maintained for four days after they had reached confluence. The medium was replaced with 5% FBS […] medium and incubated for 2 hrs at room temperature with 10×10^4 cpm mono-^125I-[Nle^8,18,Tyr^34(3-^125I)]bPTH(1-34)NH2 in the presence or absence of a competing tested polypeptide of the invention. The cells were washed four times with ice-cold PBS and lysed with 0.1M NaOH, and the radioactivity associated with the cells was counted in a scintillation counter. Synthesis of the radiolabelled [Nle^8,18,Tyr^34(3-^125I)]bPTH(1-34)NH2 was carried out as described in Goldman M. E., et al., Endocrinology, (1988), 123, 1468-1475.
# The binding assay was conducted on the polypeptides of the invention having SEQ ID NO:5, 6, 7, 9, 10, 11, and 12.
# [3] = target: T1, recombinant hPTH1-receptor (Homo sapiens, UniProt Q03431); test: Radioreceptor competition binding, 125I-PTH(1-34), HEK293/C21 cells; settings: 125I-PTH(1-34) ~0.1 nM, 2 h at room temperature
# T1 construct: expressed in transfected cells
# T1 sequence (Q03431 27-593): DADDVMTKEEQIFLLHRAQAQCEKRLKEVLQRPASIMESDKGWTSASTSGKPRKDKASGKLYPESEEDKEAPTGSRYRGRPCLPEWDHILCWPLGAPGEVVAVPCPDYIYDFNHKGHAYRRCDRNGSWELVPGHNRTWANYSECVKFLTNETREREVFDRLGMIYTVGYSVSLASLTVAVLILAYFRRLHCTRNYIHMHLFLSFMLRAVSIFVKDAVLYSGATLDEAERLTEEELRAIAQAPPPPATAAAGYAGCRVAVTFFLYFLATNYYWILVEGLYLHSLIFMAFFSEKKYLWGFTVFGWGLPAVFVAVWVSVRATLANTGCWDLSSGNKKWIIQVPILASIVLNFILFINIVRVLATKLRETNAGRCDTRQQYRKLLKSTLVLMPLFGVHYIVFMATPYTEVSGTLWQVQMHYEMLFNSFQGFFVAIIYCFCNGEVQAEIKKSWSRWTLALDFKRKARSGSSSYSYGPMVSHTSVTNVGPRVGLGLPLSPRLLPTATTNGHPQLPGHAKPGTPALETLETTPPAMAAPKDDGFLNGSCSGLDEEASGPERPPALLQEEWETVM
# Procedure: Human embryonic kidney (HEK293) cells, stably transfected with recombinant hPTH1-receptor (HEK293/C21 cell line, ˜400,000 receptors/cell) (Pines, M., Adams, A. E., Stueckle, S., Bessalle, R., Rashti-Behar, V., Chorev, M., Rosenblatt, M., and Suva, L. J. Endocrinology 1994, 135, 1713-1716), were maintained in D-MEM medium supplemented with 10% fetal bovine serum and […] glutamine at 37° C. in a humidified atmosphere of 95% air/5% CO2. The medium was changed every 3-4 days, and the cells were subcultured every week. Ligand stimulated adenylyl cyclase activity and radioreceptor competition binding assays were performed on confluent cultures, 1-3 days after a change of medium.
# [Nle^8,18,Nal^23,Tyr^34]bPTH(1-34)-NH2 was radioiodinated and the crude material was purified as previously described (Roubini, E., Duong, L. T., Gibbons, S. W., Leu, C. T., Caulfield, M. P., Chorev, M., and Rosenblatt, M. Biochemistry 1992, 31, 4026-4033). […] The pure mono-radioiodinated peptide was isolated on an analytical RP-HPLC Vydac Protein C18 column (The Separation Group, Hesperia, Calif.) employing a linear gradient of 36-42% B in A for 30 min (A, 0.1% TFA in water; B, 0.1% TFA in acetonitrile) at a flow rate of 1 mL/min, and monitored at 220 nm. […]
Compound,EC50 [2] [nM],IC50 (SaOS-2/B10 cells) [nM],other results
[Tyr^34]bPTH(7-34)NH2,–,–,receptor binding / affinity for renal PTH receptors (renal PTH receptors): moderate affinity; agonist activity [1]: does not have any agonist activity
"AVSEHQLLHDKGKSIQDLRRRELLEKLLELLHTA-NH2 [SEQ ID NO: 10, [Glu^22,25,29,Leu^23,28,30,31,Lys^26]hPTHrP(1–34)NH2]",5,70,–
"CC[C@H](C)[C@H](NC(=O)[C@H](CO)NC(=O)[C@H](CCCCN)NC(=O)CNC(=O)[C@H](CCCCN)NC(=O)[C@H](CC(=O)O)NC(=O)[C@H](Cc1c[nH]cn1)NC(=O)[C@H](CC(C)C)NC(=O)[C@H](CC(C)C)NC(=O)[C@H](CCC(N)=O)NC(=O)[C@H](Cc1c[nH]cn1)NC(=O)[C@H](CCC(=O)O)NC(=O)[C@H](CO)NC(=O)[C@@H](NC(=O)[C@H](C)N)C(C)C)C(=O)N[C@@H](CCC(N)=O)C(=O)N[C@@H](CC(=O)O)C(=O)N[C@@H](CC(C)C)C(=O)N[C@@H](CCCNC(=N)N)C(=O)N[C@@H](CCCNC(=N)N)C(=O)N[C@@H](CCCNC(=N)N)C(=O)N[C@@H](CCC(=O)O)C(=O)N[C@@H](CC(C)C)C(=O)N[C@@H](CC(C)C)C(=O)N[C@@H](CCC(=O)O)C(=O)N[C@@H](CCCCN)C(=O)N[C@@H](CC(C)C)C(=O)N[C@@H](CC(C)C)C(=O)N[C@@H](CCC(=O)O)C(=O)N[C@@H](CCCCN)C(=O)N[C@@H](CC(C)C)C(=O)N[C@@H](Cc1cccs1)C(=O)N[C@H](C(=O)N[C@@H](C)C(N)=O)[C@@H](C)O [SEQ ID NO: 9, [Glu^22,25,29,Leu^23,28,31,Lys^26,30,Thi^32]hPTHrP(1–34)NH2] (H-AVSEHQLLHDKGKSIQDLRRRELLEKLLEKL[2Thi]TA-NH2; N-terminus assumed)",10,90,–
"PTH(25-34) (RKKLQDVHNF; Parathyroid hormone; UniProt P01270 56-65, looked up, fragment) [PTH fragment of residues 25-34]",–,–,receptor binding / affinity for renal PTH receptors (renal PTH receptors): weak receptor binding activity
"AVSEHQLLHDKGKSIQDLRRRFLLHHLLAELHTA-NH2 [SEQ ID NO: 11, [Leu^23,28,31]hPTHrP(1–34)NH2]",0.74,18.3,–
"PTH(1 -25) (SVSEIQLMHNLGKHLNSMERVEWLR; Parathyroid hormone; UniProt P01270 32-56, looked up, fragment) [carboxyl-terminally truncated PTH fragment of residues 1-25]",–,–,activity of carboxyl-terminally truncated PTH [1]: essentially inactive
"SVSEIQLMHNLGKHLNSMERVELLEKLLEKLHNF-NH2 [SEQ ID NO: 5, [Glu^25,29,Leu^23,27,31,Lys^30]hPTH(1–34)NH2]",24,216,–
"CCCC[C@H](NC(=O)[C@H](Cc1ccccc1)NC(=O)[C@H](CCC(N)=O)NC(=O)[C@@H](NC(=O)[C@H](CCC(=O)O)NC(=O)[C@H](CO)NC(=O)[C@@H](NC(=O)[C@H](C)N)C(C)C)[C@@H](C)CC)C(=O)N[C@@H](Cc1c[nH]cn1)C(=O)N[C@@H](CC(N)=O)C(=O)N[C@@H](CC(C)C)C(=O)NCC(=O)N[C@@H](CCCCN)C(=O)N[C@@H](Cc1c[nH]cn1)C(=O)N[C@@H](CC(C)C)C(=O)N[C@@H](CO)C(=O)NCCC(=O)N[C@H](CC(=O)NCCC(=O)N[C@@H](CCCNC(=N)N)C(=O)N[C@H](C(=O)N[C@@H](CCC(=O)O)C(=O)N[C@@H](Cc1ccc2ccccc2c1)C(=O)N[C@@H](CC(C)C)C(=O)N[C@@H](CCCNC(=N)N)C(=O)N[C@@H](CCCCN)C(=O)N[C@@H](CCCCN)C(=O)N[C@@H](CC(C)C)C(=O)N[C@@H](CCC(N)=O)C(=O)N[C@@H](CC(=O)O)C(=O)N[C@H](C(=O)N[C@@H](Cc1c[nH]cn1)C(=O)N[C@@H](CC(N)=O)C(=O)N[C@@H](Cc1ccc(O)cc1)C(N)=O)C(C)C)C(C)C)CC(C)C [SEQ ID NO: 17, [Nle^8,β-Ala^17,19,β-hLeu^18,Nal^23,Tyr^34]bPTH(1–34)NH2] (H-AVSEIQF[Nle]HNLGKHLS[βAla][β3hL][βAla]RVE[2Nal]LRKKLQDVHNY-NH2; N-terminus assumed)",–,–,IC50 [3]: > 1000 nM
"AVSEHQLLHDKGKSIQDLRRREFLEKLIEKIHTA-NH2 [SEQ ID NO: 12, [Glu^22,25,29,Lys^26,30]hPTHrP(1–34)NH2]",0.42,5.5,–
"SVSEIQLMHNLGKHLNSMERVEWLEKKLEKVHNF-NH2 [SEQ ID NO: 6, [Glu^25,29,Lys^30]hPTH(1–34)NH2]",25.5,30,–
"SVSEIQLMHNLGKHLNSMERVELLRKLLQDLHNF-NH2 [SEQ ID NO: 7, [Leu^23,27,31]hPTH(1–34)NH2]",1.12,41,–
